Assay results published in patent US7122533B2, “Cosalane compounds and methods for their use” (The United States of America as represented by the …, priority 1999, dated 2006).

Legend:
Type in all cases: cell-based
[1] = system: human monocytes (MIP1-β-induced migration); assay: MIP1-β-induced monocyte migration; settings: compound at 1 μM, chemokine at 2.5 ng/ml, data not shown
Procedure: (§1) Monocyte chemotaxis was performed as previously described [Wang (1993) J. Immunol. 150:3022–3029]. Briefly, monocytes were resuspended in binding media (RPMI-1640 media containing 1% BSA, 25 mM HEPES, pH 8.0) at 1–2×10^6 cells/ml. […] Five micrometer polyvinyl-free polycarbonate membranes were placed over the chemokine mixtures. After the micro-chemotaxis chamber was assembled, 50 μl of cells were placed in the upper wells. The filled chemotaxis chambers were incubated in a humidified CO2 incubator for 90 minutes.
(§2) After incubating, the membranes were removed from the chemotaxis chamber assembly followed by gently removing the cells from the upper side of the membrane. Then cells on the lower side of the membrane were stained.
(§3) The number of cells migrating to the chemokine mixtures was determined for binding media alone, and chemokine treated and untreated cells. HEK-293 cells transfected to express human CCR1, CCR3 or CCR5 receptors were resuspended in binding media at 7.5×10^5 cells/ml. Ten μm polyvinyl-free polycarbonate membranes (Neuro Probe) were treated with 47 ug/ml rat tail collagen type 1 (Collaborative Biomedical Products, Bedford, Md.) in RPMI-1640 overnight, dried and placed over the chemoattractants. The assembled chemotaxis chambers were incubated in a humidified CO2 incubator for 5.5–6 hours. After the incubation, the membranes were removed from the chemotaxis chamber assembly followed by gently removing cells from the upper side of the membrane. The stained and dried membrane was mounted and the cells on the underside of the membrane were counted at 200× magnification.
(§4) It is noted that both MIP1-α and MIP1-β are ligands for CCR1, CCR5, and D6 (8).

[2] = system: human monocytes (SDF-1α-induced migration; CXCR4 ligand); assay: SDF-1α-induced monocyte/lymphocyte migration; settings: compound at 1 μM, FIG. 1
Procedure: (§5) Monocyte chemotaxis was performed as previously described [Wang (1993) J. Immunol. 150:3022–3029]. Briefly, monocytes were resuspended in binding media (RPMI-1640 media containing 1% BSA, 25 mM HEPES, pH 8.0) at 1–2×10^6 cells/ml. Chemokines, diluted in binding media, were mixed with cosalane or the indicated cosalane analog and placed in the lower wells of a micro-chemotaxis chamber (Neuro Probe, Cabin John, Md.). Five micrometer polyvinyl-free polycarbonate membranes were placed over the chemokine mixtures. After the micro-chemotaxis chamber was assembled, 50 μl of cells were placed in the upper wells. The filled chemotaxis chambers were incubated in a humidified CO2 incubator for 90 minutes.
as §2
The number of cells migrating to the chemokine mixtures was determined for binding media alone, and chemokine treated and untreated cells. […] The stained and dried membrane was mounted and the cells on the underside of the membrane were counted at 200× magnification. […]
The ability of the cosalane analogs 3 and 4 to block SDF-1α (a CXCR4 ligand) and RANTES (a CCR1, CCR3, and CCR5 ligand) induced migration of human monocytes or lymphocytes was initially evaluated. […]

human CCR1 [3] = target: T1, human CCR1 (Homo sapiens, UniProt P32246); assay: MIP1β-induced migration of CCR1 transfectants; settings: compound at 1 μM, data not shown
T1 construct: expressed in transfected cells; host or cells: HEK-293
T1 sequence (P32246 1-355): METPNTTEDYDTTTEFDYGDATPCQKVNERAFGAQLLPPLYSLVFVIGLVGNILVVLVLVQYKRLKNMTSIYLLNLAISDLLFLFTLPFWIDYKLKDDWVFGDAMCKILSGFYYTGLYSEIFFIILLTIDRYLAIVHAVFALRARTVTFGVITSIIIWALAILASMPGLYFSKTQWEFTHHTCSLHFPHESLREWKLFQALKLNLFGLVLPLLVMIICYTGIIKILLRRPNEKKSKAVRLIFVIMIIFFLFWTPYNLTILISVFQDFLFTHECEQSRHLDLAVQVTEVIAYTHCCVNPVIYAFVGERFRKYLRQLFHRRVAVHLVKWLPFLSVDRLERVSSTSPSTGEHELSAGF
Procedure: (§6) Human embryonic kidney cells 293 (HEK-293) transfected to express human CCR1, CCR3, or CCR5 receptors were cultured in Dulbecco's Modified Eagles Medium (DMEM, Biowhiftaker, Walkersville, Md.) containing 10% Fetal Bovine Serum (FBS, Hyclone, Logan, Utah), 2 mM glutamine and 100 U/ml penicillin and streptomycin (Quality Biologicals, Gaithersburg, Md.). Peripheral blood mononuclear cells were isolated from fresh normal donor apheresis packs by centrifugation over Ficoll. Monocytes were enriched by 85–95% using percoll fractionation (Pharmacia, Piscataway, N.J.).
as §3, with “magnification. The results are reported as the average number of cells per high powered field at a given chemokine concentration±standard deviation.” for “magnification.”
(§7) The ability of compound 3 to inhibit RANTES-induced migration of human embryonic kidney (HEK) cells transfected to express individual chemokine receptors was initially tested. Although the cosalane analog 3 (1 μM) had no effect on RANTES-induced migration of CCR5 transfectants, it inhibited 50% of RANTES-induced CCR1 transfectant migration (FIG. 2). In contrast, the MIP1α- and MIP1β-induced migration of CCR1 transfectants was not inhibited by compounds 1, 2 or 3 when tested at concentrations of 1 μM (data not shown).

human CCR1 [4] = target: T1, human CCR1; assay: RANTES-induced CCR1/HEK-293 transfectant migration
Procedure: Human embryonic kidney cells 293 (HEK-293) transfected to express human CCR1, CCR3, or CCR5 receptors were cultured in Dulbecco's Modified Eagles Medium (DMEM, Biowhiftaker, Walkersville, Md.) containing 10% Fetal Bovine Serum (FBS, Hyclone, Logan, Utah), 2 mM glutamine and 100 U/ml penicillin and streptomycin (Quality Biologicals, Gaithersburg, Md.). Peripheral blood mononuclear cells were isolated from fresh normal donor apheresis packs by centrifugation over Ficoll.
as §3

[5] = system: MCP-4/CCR2-mediated monocyte migration; assay: MCP-4-induced human monocyte migration; settings: FIG. 3
Procedure: as §5, §2
as §3, with “magnification. The results are reported as the average number of cells per high powered field at a given chemokine concentration±standard deviation.” for “magnification.”
Although MCP-4 is known to bind to CCR2 and CCR3, fresh primary human monocytes only express high levels of CCR2.

human CCR5 = target: T2, human CCR5 (Homo sapiens, UniProt P51681); assay: RANTES-induced CCR5/HEK-293 transfectant migration; settings: compound at 1 μM, FIG. 2
T2 construct: expressed in transfected cells; host or cells: HEK-293
T2 sequence (P51681 whole entry): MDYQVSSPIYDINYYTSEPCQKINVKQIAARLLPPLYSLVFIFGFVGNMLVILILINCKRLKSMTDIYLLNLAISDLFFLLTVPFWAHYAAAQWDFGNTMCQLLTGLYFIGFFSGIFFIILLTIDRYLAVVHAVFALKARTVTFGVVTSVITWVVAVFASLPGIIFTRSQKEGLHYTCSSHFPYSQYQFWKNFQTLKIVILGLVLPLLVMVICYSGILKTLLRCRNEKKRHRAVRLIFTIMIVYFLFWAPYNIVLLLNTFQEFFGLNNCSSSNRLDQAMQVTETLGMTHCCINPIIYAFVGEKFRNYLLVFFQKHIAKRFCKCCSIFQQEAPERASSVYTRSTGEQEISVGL
Procedure: as §6
as §3, with “After the incubation, the membranes were removed from the chemotaxis chamber assembly followed by gently removing cells from the upper side of the membrane.” left out, “magnification. […]” for “magnification.”

[6] = system: human monocytes (acetylated RANTES-induced migration); assay: monocyte migration induced by acetylated (modified) RANTES; settings: 10 μM compound; acetylated RANTES 50–1000 ng/mL, FIG. 6
Procedure: as §5, §2
as §3, with “magnification. The results are reported as the average number of cells per high powered field at a given chemokine concentration±standard deviation. […]” for “magnification.”

human CCR1 [7] = target: T1, human CCR1; assay: MIP1α-induced migration of CCR1 transfectants; settings: compound at 1 μM, data not shown
Procedure: as §6
as §3, with “magnification. The results are reported as the average number of cells per high powered field at a given chemokine concentration±standard deviation.” for “magnification.”
as §7

[8] = system: human monocytes (MIP1-α-induced migration); assay: MIP1-α-induced monocyte migration; settings: compound at 1 μM, chemokine at 2.5 ng/ml, data not shown
Procedure: as §1, §2, §3, §4

[9] = system: human monocytes (RANTES-induced migration); assay: RANTES-induced monocyte migration (micro-chemotaxis chamber)
Procedure: as §6, §5, §2
as §3, with “magnification. The results are reported as the average number of cells per high powered field at a given chemokine concentration±standard deviation.” for “magnification.”

CC(C)CCCC(C)[C@H]1CCC2C3CCC4C[C@@H](CCC=C(c5cc(Cl)c(OCc6ccccc6C(=O)O)c(C(=O)O)c5)c5cc(Cl)c(OCc6ccccc6C(=O)O)c(C(=O)O)c5)CC[C@]4(C)C3CC[C@@]21C (stereo partly shown) [Compound 3] was tested, and the “inhibition of MIP1-β-induced monocyte migration” value [1] was “neither MiP1-α- nor MIP1-β-induced monocyte migration was inhibited”, the “inhibition of SDF-1α-induced monocyte migration” value [2] was “effective inhibitor” and the “inhibition of MIP1β-induced migration of CCR1 transfectants” value (human CCR1 [3]) was “not inhibited”. For the same compound, the inhibition at 1 µM (human CCR1 [4]; HEK293, compound at 1 μM, FIG. 2) was 50%, the IC50 (human CCR1 [4]; ≦ 5% standard error, NA = not active, read-out: IC50 (μM) RANTES-Induced CCRI/HEK Migration) was 0.26 µM and the “block of MCP-4/CCR2-mediated monocyte migration” value [5] was “block”. The “effect on RANTES-induced migration of CCR5 transfectants” value (human CCR5) was “no effect”, the “inhibition of the activity of modified (acetylated) RANTES to attract monocytes” value [6] was “not inhibited” and the “inhibition of MIP1α-induced migration of CCR1 transfectants” value (human CCR1 [7]) was “not inhibited”. For the same compound, the “inhibition of MIP1-α-induced monocyte migration” value [8] was “neither MiP1-α- nor MIP1-β-induced monocyte migration was inhibited”, the IC50 ([9]; Homo sapiens, Monocyte, ≦ 5% standard error, NA = not active) was 3.9 µM and the “inhibition of RANTES-induced monocyte migration” value ([9]; compound at 1 μM, FIG. 1) was “effective inhibitor”. The “activity as inhibitors of RANTES-induced migration” value ([9]; discussion of Table 1) was “retain activity”.
